Measured values: patent US12091402B2 (Avilar Therapeutics, Inc., priority 2021, dated 2024)
Where two headings read alike, the source gives them in different places. *1 amine or outer side, *2 acyl side, *3 side chain or, on linkers, in order; H or OH if unused. Where a SMILES comes first, the peptide text is derived from it. Bridges are numbered along the chain shown (N, C = ends). [ ]: non-standard residue; d: D form. The star is where a group is joined. X2 = O=C(CCOCC(COCCC(=O)NCCOCCOCCOCCOC[C@H]1OC[C@H](Nc2cncc(C(F)(F)F)n2)[C@@H](O)[C@H]1O)NCC(=O)*)NCCOCCOCCOCCOC[C@H]1OC[C@H](Nc2cncc(C(F)(F)F)n2)[C@@H](O)[C@H]1O; X1 = O=C([C@@H]1C[C@H](N[*:3])CN1[*:1])[*:2]

Key:
IgG = experiment: Affinity to IgG by surface plasmon resonance (SPR); format: binding
Description: Immobilization levels ranging from 1000-1300 resonance units (RU) are obtained. The running buffer is 10 mM HEPES, pH 7.4, 400 mM NaCl, 0.005% P20, […].

ASGPR = target: T1, ASGPR (Homo sapiens, UniProt P07306); experiment: Affinity to ASGPR by surface plasmon resonance (SPR)
T1 sequence (P07306 1-291): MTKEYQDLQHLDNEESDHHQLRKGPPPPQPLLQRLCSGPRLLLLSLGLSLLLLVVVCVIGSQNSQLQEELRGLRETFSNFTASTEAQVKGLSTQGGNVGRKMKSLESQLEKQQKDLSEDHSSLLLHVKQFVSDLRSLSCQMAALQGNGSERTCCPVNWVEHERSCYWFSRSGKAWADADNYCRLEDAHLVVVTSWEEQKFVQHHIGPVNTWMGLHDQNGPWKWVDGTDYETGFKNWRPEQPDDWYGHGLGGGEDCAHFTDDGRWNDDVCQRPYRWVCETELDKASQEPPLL

[1] = target: T2, ASGPR receptor on the cell surface (HepG2 cells) (Homo sapiens, UniProt P07306); experiment: Ternary complex formation assay (flow cytometry, HepG2); format: cell-based
T2 construct: host or cells: HepG2
T2 sequence (P07306 1-291): T1 sequence (P07306 1-291)
T2 sequence (P07307 1-311 partner): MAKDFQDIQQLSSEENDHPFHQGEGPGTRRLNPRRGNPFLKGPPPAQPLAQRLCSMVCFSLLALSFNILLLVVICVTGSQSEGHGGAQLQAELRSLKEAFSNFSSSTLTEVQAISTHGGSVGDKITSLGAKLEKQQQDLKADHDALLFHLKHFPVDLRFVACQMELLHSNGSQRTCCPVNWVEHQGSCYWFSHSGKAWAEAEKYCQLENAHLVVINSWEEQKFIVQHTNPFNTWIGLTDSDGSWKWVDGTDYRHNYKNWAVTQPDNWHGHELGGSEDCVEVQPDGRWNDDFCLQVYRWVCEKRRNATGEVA
Method in brief: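 HepG2 cells (1×10^5/well) incubated 1 h at 4 °C with 100 nM AF488-labeled anti-human IgG plus serial IgG-based degrader, or 100 nM AF488 rabbit anti-DNP plus serial DNP-based degrader. After washing, cell-associated AF488 MFI read by flow cytometry; peak MFI marks optimal degrader concentration for ternary complex.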

HepG2 cells = experiment: Cellular uptake assay of AF488-labeled antibody (HepG2); format: cell-based; conditions: HepG2 cells
Method in brief: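 HepG2 cells given 100 nM AF488-labeled human IgG or DNP antibody plus serial dilutions of matching degrader (0.1% DMSO final), 6 h at 37° C. Methanol-fixed, DAPI-stained and imaged by high-content analysis. Value is the fraction of AF488-positive cells over total DAPI-counted cells.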

[2] = 100 nM AF488-labeled antibody, 37° C. for 6 hours, class symbols, read-out: Uptake Assay EC50
[3] = HepG2 cells, ternary complex formation, read-out: TCF EC50

Row | EC50 [1, 3] [nM] | Compound | Kd (IgG; SPR, read-out: IgG KD) [nM] | Kd (ASGPR) [nM] | EC50 [1] [nM] | EC50 ([1]; read-out: Ternary Complex EC50) [nM] | EC50 (HepG2 cells; [2]) [nM] | EC50 (HepG2 cells; read-out: Uptake EC50) [nM] | EC50 ([1]; TCF EC50, HepG2 cells, ternary complex formation) [nM] | Kd (IgG; Biacore 8K, 25° C., IgG on CM5 chip, read-out: IgG SPR Binding Kd) [nM]
1 |  | CC(C)C[C@@H]1NC(=O)[C@H](Cc2c[nH]cn2)NC(=O)[C@H](Cc2c[nH]c3ccccc23)NC(=O)[C@H](C)NC(=O)[C@@H]2CSSC[C@H](NC(=O)[C@H](Cc3c[nH]c4ccccc34)NC(=O)[C@H](C(C)C)NC(=O)[C@H](CC(C)C)NC(=O)[C@H](CCC(=O)O)NC(=O)CNC1=O)C(=O)N[C@@H]([C@@H](C)O)C(=O)N1CCC[C@@H]1C(=O)N1C[C@@H](NC(=O)CCOCCOCCOCCOCCNC(=O)CCCc3cn(CCCCCC(=O)NC(COCCC(=O)NCCOCCOCCOCCOC[C@H]4OC[C@H](Nc5cncc(C(F)(F)F)n5)[C@@H](O)[C@H]4O)COCCC(=O)NCCOCCOCCOCCOC[C@H]4OC[C@H](Nc5cncc(C(F)(F)F)n5)[C@@H](O)[C@H]4O)nn3)C[C@H]1C(=O)N[C@@H](CC(=O)O)C(=O)N2 [Compound 4] | < 100 | < 100 | < 100 | < 100 | < 100 | < 100 |  | 
2 | 500 to 1000 | CC(C)C[C@@H]1NC(=O)[C@H](Cc2cnc[nH]2)NC(=O)[C@H](Cc2c[nH]c3ccccc23)NC(=O)[C@H](C)NC(=O)[C@@H]2CSSC[C@H](NC(=O)[C@H](Cc3c[nH]c4ccccc34)NC(=O)[C@H](C(C)C)NC(=O)[C@H](CC(C)C)NC(=O)[C@H](CCC(=O)O)NC(=O)CNC1=O)C(=O)N[C@@H]([C@@H](C)O)C(=O)N1CCC[C@@H]1C(=O)N1C[C@@H](NC(=O)c3ccc(-c4ccc(C(=O)NC[C@H]5OC[C@H](Nc6cncc(C(F)(F)F)n6)[C@@H](O)[C@H]5O)cc4)cc3)C[C@H]1C(=O)N[C@@H](CC(=O)O)C(=O)N2 [Compound 72] | < 100 | < 100 |  |  |  | < 100 |  | 
3 |  | CC(C)C[C@@H]1NC(=O)[C@H](C)NC(=O)CNC(=O)[C@H](CC(C)C)NC(=O)[C@H](Cc2cnc[nH]2)NC(=O)[C@H](Cc2c[nH]c3ccccc23)NC(=O)[C@H](C)NC(=O)[C@@H]2CSSC[C@H](NC(=O)[C@H](Cc3c[nH]c4ccccc34)NC(=O)[C@H](C(C)C)NC1=O)C(=O)N[C@@H]([C@@H](C)O)C(=O)N1CCC[C@@H]1C(=O)N1C[C@@H](NC(=O)CNC(COCCC(=O)NCCOCCOCCOCCOC[C@H]3OC[C@H](Nc4cncc(C(F)(F)F)n4)[C@@H](O)[C@H]3O)COCCC(=O)NCCOCCOCCOCCOC[C@H]3OC[C@H](Nc4cncc(C(F)(F)F)n4)[C@@H](O)[C@H]3O)C[C@H]1C(=O)N[C@@H](C)C(=O)N2 [Compound 76] (cyclo(ACAWHLGALVWCT[dP][X1](X2)); disulfide 2-12) | < 100 | < 100 |  |  |  | < 100 | < 100 | 
4 | < 100 | CC(C)C[C@@H]1NC(=O)[C@H](Cc2cnc[nH]2)NC(=O)[C@H](Cc2c[nH]c3ccccc23)NC(=O)[C@H](C)NC(=O)[C@@H]2CSSC[C@H](NC(=O)[C@H](Cc3c[nH]c4ccccc34)NC(=O)[C@H](C(C)C)NC(=O)[C@H](CC(C)C)NC(=O)[C@H](CCC(=O)O)NC(=O)CNC1=O)C(=O)N[C@@H]([C@@H](C)O)C(=O)N1CCC[C@@H]1C(=O)N1C[C@@H](NC(=O)c3ccc(N4CCC(CN5CCN(C[C@H]6OC[C@H](Nc7cncc(C(F)(F)F)n7)[C@@H](O)[C@H]6O)CC5)CC4)nn3)C[C@H]1C(=O)N[C@@H](CC(=O)O)C(=O)N2 [Compound 66] | < 100 | < 100 |  |  |  | < 100 |  | 
5 |  | CC(C)C[C@@H]1NC(=O)[C@H](Cc2cnc[nH]2)NC(=O)[C@H](Cc2c[nH]c3ccccc23)NC(=O)[C@H](C)NC(=O)[C@@H]2CSSC[C@H](NC(=O)[C@H](Cc3c[nH]c4ccccc34)NC(=O)[C@H](C(C)C)NC(=O)[C@H](CC(C)C)NC(=O)[C@H](CCC(=O)O)NC(=O)CNC1=O)C(=O)N[C@@H]([C@@H](C)O)C(=O)N1CCC[C@@H]1C(=O)N1C[C@@H](NC(=O)CCOCCNC(=O)CCCc3cn(C[C@@]45CO[C@@H](O4)[C@H](Nc4nc(Cl)ns4)[C@@H](O)[C@H]5O)nn3)C[C@H]1C(=O)N[C@@H](CC(=O)O)C(=O)N2 [Compound 7] |  | < 100 | < 100 |  | 100 to 500 |  |  | < 100
